Experimental data from US11318137B2, “Quinazoline compounds as modulators of Ras signaling” (VANDERBILT UNIVERSITY, priority 2017, dated 2022).

Tests used:
[1] = tested on: H727 lung cancer cell lines, which contain a G12V K-Ras mutation; assay: Inhibition of cancer cell proliferation (CellTiter-Glo, 3 days); format: cell-based; conditions: Homo sapiens, NCI-H727, 72 h, H727 cells, 3 days at 37° C., normalized to DMSO control, read-out: Cell proliferation activity (H727 cancer cell line proliferation IC50)
Experimental: C. Inhibition of Cancer Cell Proliferation
Compounds of the present invention were measured for their ability to kill H727 lung cancer cell lines, which contain a G12V K-Ras mutation. Cell proliferation experiments were conducted in 96-well plates. Cells were plated at 1000 cells/well, incubated overnight, followed by treatment with a dose range of compound for 3 days at 37° C. Cell proliferation was assessed using a CellTiter-Glo assay (Promega) according to the manufacturer's protocol. Data were normalized to DMSO control. IC50 values were determined using a four-parameter dose-response (variable slope) equation. These assays are performed in a manner analogous to the assay disclosed in: Burns, M. C.; Sun, Q.; Daniels, R. N.; Camper, D. V.; Kennedy, J. P.; Phan, J.; Olejniczak, E. O.; Lee, T.; Waterson, A. G.; Rossanese, O. W.; Fesik, S. W. “Approach for targeting Ras with small molecules that activate SOS-mediated nucleotide exchange” Proc. Natl. Acad. Sci. 2014; 11(9): 3401-3406. PMCID: PMC3948241.

[2] = biological target: T1, SOS-mediated nucleotide exchange on Ras (Homo sapiens, UniProt Q07889); assay: SOS-mediated nucleotide exchange on Ras (BODIPY-GDP fluorescence); format: biochemical; conditions: Ras loaded with BODIPY-GDP, GTP and SOS added; EC50 from derived exchange rates
T1 sequence (Q07889 1-1333): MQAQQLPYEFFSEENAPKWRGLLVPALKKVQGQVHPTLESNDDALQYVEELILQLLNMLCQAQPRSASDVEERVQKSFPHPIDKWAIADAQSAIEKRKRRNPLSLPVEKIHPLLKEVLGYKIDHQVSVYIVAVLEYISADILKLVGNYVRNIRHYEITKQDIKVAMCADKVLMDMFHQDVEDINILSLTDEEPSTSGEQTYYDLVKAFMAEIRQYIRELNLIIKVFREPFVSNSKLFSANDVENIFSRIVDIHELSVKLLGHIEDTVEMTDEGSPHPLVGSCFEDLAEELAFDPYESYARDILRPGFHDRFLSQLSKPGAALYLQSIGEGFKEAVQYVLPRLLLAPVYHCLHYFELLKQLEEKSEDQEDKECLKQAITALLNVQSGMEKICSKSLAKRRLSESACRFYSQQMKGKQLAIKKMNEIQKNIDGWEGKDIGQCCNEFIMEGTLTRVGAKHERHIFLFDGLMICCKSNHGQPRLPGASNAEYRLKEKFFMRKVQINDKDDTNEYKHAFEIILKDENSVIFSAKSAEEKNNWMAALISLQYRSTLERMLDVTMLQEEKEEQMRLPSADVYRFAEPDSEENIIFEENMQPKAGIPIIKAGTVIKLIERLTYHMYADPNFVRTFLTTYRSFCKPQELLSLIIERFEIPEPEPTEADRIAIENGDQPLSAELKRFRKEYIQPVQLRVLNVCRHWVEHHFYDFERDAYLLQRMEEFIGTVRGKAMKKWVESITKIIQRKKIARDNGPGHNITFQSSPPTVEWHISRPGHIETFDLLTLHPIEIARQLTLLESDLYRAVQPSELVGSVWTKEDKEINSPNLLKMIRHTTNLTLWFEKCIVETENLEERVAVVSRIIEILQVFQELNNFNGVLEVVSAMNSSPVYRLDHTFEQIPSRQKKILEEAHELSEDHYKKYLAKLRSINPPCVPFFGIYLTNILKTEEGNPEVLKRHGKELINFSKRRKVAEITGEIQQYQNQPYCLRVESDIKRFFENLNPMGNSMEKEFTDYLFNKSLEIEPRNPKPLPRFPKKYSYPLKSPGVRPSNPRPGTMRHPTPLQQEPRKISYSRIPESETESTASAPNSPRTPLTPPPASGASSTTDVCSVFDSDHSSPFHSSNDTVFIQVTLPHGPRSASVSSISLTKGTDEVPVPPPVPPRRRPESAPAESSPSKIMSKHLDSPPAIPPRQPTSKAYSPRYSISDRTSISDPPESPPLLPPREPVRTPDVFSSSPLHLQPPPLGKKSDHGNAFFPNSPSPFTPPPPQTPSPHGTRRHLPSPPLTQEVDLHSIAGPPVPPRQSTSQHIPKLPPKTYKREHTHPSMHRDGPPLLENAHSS
Method in brief: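 Compound, then GTP and SOS, were added to buffered Ras preloaded with BODIPY-GDP, and the fluorescence change from labeled GDP being exchanged for GTP was followed over time. Rates came from single-exponential fits, and EC50 from a four-parameter fit of mean rate against compound concentration.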

Son of Sevenless (SOS) = biological target: T2, Son of Sevenless (SOS) (Homo sapiens, UniProt Q07889); assay: Binding to SOS, fluorescence polarization anisotropy (FPA) displacement of FITC-conjugated probe; conditions: binding affinity calculated from IC50 of FITC-probe displacement, read-out: Binding affinities (binding affinity to SOS)
T2 sequence (Q07889 564-1049 limits assumed): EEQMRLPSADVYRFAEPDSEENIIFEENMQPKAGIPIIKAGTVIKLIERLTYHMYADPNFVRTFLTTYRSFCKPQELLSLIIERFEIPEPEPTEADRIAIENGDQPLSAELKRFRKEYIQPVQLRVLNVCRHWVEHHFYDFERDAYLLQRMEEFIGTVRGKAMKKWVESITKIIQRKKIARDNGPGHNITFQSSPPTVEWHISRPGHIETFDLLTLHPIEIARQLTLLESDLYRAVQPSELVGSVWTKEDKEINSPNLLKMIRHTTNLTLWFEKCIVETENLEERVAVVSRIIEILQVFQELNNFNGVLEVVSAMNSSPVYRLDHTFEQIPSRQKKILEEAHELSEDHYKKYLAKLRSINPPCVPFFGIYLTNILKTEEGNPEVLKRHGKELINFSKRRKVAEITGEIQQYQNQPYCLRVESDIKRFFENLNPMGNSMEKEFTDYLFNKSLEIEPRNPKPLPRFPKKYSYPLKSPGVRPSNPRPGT
Method in brief: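 FITC-labelled probe incubated with SOS in buffer; displacement by test compound across a dose range read as fluorescence anisotropy change. IC50 from four-parameter variable-slope fit, binding affinity calculated from IC50.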

Compound | EC50 [2] [µM] | Ki (Son of Sevenless (SOS)) [µM] | IC50 [1] [µM]
C[C@@H](Nc1nc(NCC2CCCCC2)nc2c(C3=CCNCC3)cccc12)C1CC1 [Example 76, (R)—N^2-(cyclohexylmethyl)-N^4-(1-cyclopropylethyl)-8-(1,2,3,6-tetrahydropyridin-4-yl)quinazoline-2,4-diamine] | 1 to 5 | 1 to 5 | < 1
C[C@@H](Nc1nc(NCc2ncco2)nc2c(C3=CCNCC3)cccc12)C1CC1 [Example 72, (R)—N^4-(1-cyclopropylethyl)-N^2-(oxazol-2-ylmethyl)-8-(1,2,3,6-tetrahydropyridin-4-yl)quinazoline-2,4-diamine] | 5 to 30 | > 5 | 5 to 20
C[C@@H](Nc1nc(Oc2ccc(F)c(Cl)c2)nc2c(C3=CCNCC3)cccc12)C1CC1 [Example 69, (R)-2-(3-chloro-4-fluorophenoxy)-N-(1-cyclopropylethyl)-8-(1,2,3,6-tetrahydropyridin-4-yl)quinazolin-4-amine] | > 30 | > 5 | 1 to 5
C[C@@H](Nc1nc(Nc2ccn(C)n2)nc2c(C3=CCNCC3)cccc12)C1CC1 [Example 71, (R)—N^4-(1-cyclopropylethyl)-N^2-(1-methyl-1H-pyrazol-3-yl)-8-(1,2,3,6-tetrahydropyridin-4-yl)quinazoline-2,4-diamine] | 5 to 30 | > 5 | 1 to 5
CC[C@@H](Nc1nc(Nc2ccc(F)c(Cl)c2)nc2c(C3=CCNCC3)cccc12)C1CC1 [Example 51, (R)—N^2-(3-chloro-4-fluorophenyl)-N^4-(1-cyclopropylpropyl)-8-(1,2,3,6-tetrahydropyridin-4-yl)quinazoline-2,4-diamine] | 1 to 5 | < 1 | < 1
CC1CCC(CNc2nc(N[C@H](C)C3CC3)c3cccc(C4=CCNCC4)c3n2)CC1 (stereo partly drawn) [Example 104, (R)—N^4-(1-cyclopropylethyl)-N^2-((4-methylcyclohexyl)methyl)-8-(1,2,3,6-tetrahydropyridin-4-yl)quinazoline-2,4-diamine] | 1 to 5 | 1 to 5 | < 1
C1=C(c2cccc3c(NC(C4CC4)C4CC4)nc(NCC4CCCCC4)nc23)CCNC1 [Example 73, N^2-(cyclohexylmethyl)-N^4-(dicyclopropylmethyl)-8-(1,2,3,6-tetrahydropyridin-4-yl)quinazoline-2,4-diamine] | 1 to 5 | 1 to 5 | < 1
C[C@@H](Nc1nc(Nc2cc[nH]n2)nc2c(C3=CCNCC3)cccc12)C1CC1 [Example 70, (R)—N^4-(1-cyclopropylethyl)-N^2-(1H-pyrazol-3-yl)-8-(1,2,3,6-tetrahydropyridin-4-yl)quinazoline-2,4-diamine] | > 30 | > 5 | 5 to 20

Now from value to compound, other results behind:

EC50 [2] [µM] | Ki (Son of Sevenless (SOS)) [µM] | Compound | IC50 [1] [µM]
5 to 30 | > 5 | NCc1cccc2c(NC(C3CC3)C3CC3)nc(NCC3CCCCC3)nc12 [Example 75, 8-(aminomethyl)-N^2-(cyclohexylmethyl)-N^4-(dicyclopropylmethyl)quinazoline-2,4-diamine] | < 1
1 to 5 | 1 to 5 | CC[C@@H](Nc1nc(Nc2ccc(F)c(Cl)c2)nc2c(N3CCNCC3)cccc12)C1CC1 [Example 64, (R)—N^2-(3-chloro-4-fluorophenyl)-N^4-(1-cyclopropylpropyl)-8-(piperazin-1-yl)quinazoline-2,4-diamine] | < 1
1 to 5 | > 5 | C[C@@H](Nc1nc(NCC2CCCCC2)nc2c(CN)cccc12)C1CC1 [Example 78, (R)-8-(aminomethyl)-N^2-(cyclohexylmethyl)-N^4-(1-cyclopropylethyl)quinazoline-2,4-diamine] | 5 to 20
1 to 5 | > 5 | CC[C@@H](Nc1nc(Nc2ccc(F)c(Cl)c2)nc2c(CN)cccc12)C1CC1 [Example 68, (R)-8-(aminomethyl)-N^2-(3-chloro-4-fluorophenyl)-N^4-(1-cyclopropylpropyl)quinazoline-2,4-diamine] | 1 to 5
1 to 5 | > 5 | C[C@@H](Nc1nc(Nc2ccc(F)c(Cl)c2)nc2c(C(=N)N)cccc12)C1CC1 [Example 57, (R)-2-((3-chloro-4-fluorophenyl)amino)-4-((1-cyclopropylethyl)amino)quinazoline-8-carboximidamide] | 1 to 5
5 to 30 | > 5 | CC[C@@H](Nc1nc(Nc2ccc(F)c(Cl)c2)nc2c(N3CCNCC3)cccc12)c1cccs1 [Example 101, (R)—N^2-(3-chloro-4-fluorophenyl)-8-(piperazin-1-yl)-N^4-(1-(thiophen-2-yl)propyl)quinazoline-2,4-diamine] | 1 to 5
> 30 | > 5 | Fc1cc(F)cc(Nc2nc(NCc3ncc[nH]3)c3ccccc3n2)c1 [Example 22, N^4-((1H-imidazol-2-yl)methyl)-N^2-(3,5-difluorophenyl)quinazoline-2,4-diamine] | > 20
5 to 30 | > 5 | C[C@@H](Nc1nc(Nc2ccc(F)c(Cl)c2)nc2c(CNC(=N)N)cccc12)C1CC1 [Example 59, (R)-1-((2-((3-chloro-4-fluorophenyl)amino)-4-((1-cyclopropylethyl)amino)quinazolin-8-yl)methyl)guanidine] | 5 to 20
1 to 5 | > 5 | CC[C@@H](Nc1nc(Nc2ccc(F)c(Cl)c2)nc2ccccc12)c1cccs1 [Example 39, (R)—N^2-(3-chloro-4-fluorophenyl)-N^4-(1-(thiophen-2-yl)propyl)quinazoline-2,4-diamine] | 5 to 20
5 to 30 | > 5 | CCC(CC)CNc1nc(Nc2ccc(F)c(Cl)c2)nc2c(N3CCNCC3)cccc12 [Example 102, N^2-(3-chloro-4-fluorophenyl)-N^4-(2-ethylbutyl)-8-(piperazin-1-yl)quinazoline-2,4-diamine] | 1 to 5
